According to ChEMBL document CHEMBL4376892, “Identification of Parthenolide Dimers as Activators of Pyruvate Kinase M2 in Xenografts of Glioblastoma Multiforme in Vivo” (J Med Chem, 2020):
Active and inactive are the calls of the source. The calls are words filed in the database; no cut-off is given here.

How the values were obtained:
U-87 MG [1] = experiment: Induction of apoptosis in human U87 cells transfected with lentivirus expressing shPKM2 assessed as necrotic cells after 48 hrs by Annexin-V-FITC/PI-staining based flow cytometric analysis (reference value: 0.580%); type: functional, U-87MG ATCC
U-118-MG [2] = experiment: Induction of apoptosis in human U118MG cells after 48 hrs by Annexin-V-FITC/PI-staining based flow cytometric analysis; type: functional, cell-based
U-87 MG [3] = experiment: Antiinvasive activity against human U87 cells transfected with lentivirus expressing shNC at 2 uM incubated for 48 hrs by crystal violet staining based transwell assay; type: functional, cell-based; conditions: U-87MG ATCC
U-118-MG [4] = experiment: Antimetastatic activity against human U118MG cells assessed as reduction in cell invasion at 2 uM after 24 hrs by crystal violet staining based transwell assay; type: functional
U-87 MG [5] = experiment: Induction of apoptosis in human U87 cells transfected with lentivirus expressing shNC assessed as early apoptotic cells after 48 hrs by Annexin-V-FITC/PI-staining based flow cytometric analysis (reference value: 0.588%); type: functional, U-87MG ATCC
U-118-MG [6] = experiment: Induction of apoptosis in human U118MG cells transfected with lentivirus expressing shPKM2 assessed as late apoptotic cells after 48 hrs by Annexin-V-FITC/PI-staining based flow cytometric analysis (reference value: 0.221%); type: functional
Pyruvate kinase PKM [7] = target: T1, Pyruvate kinase PKM (Homo sapiens, UniProt P14618); experiment: Activation of PKM2 in human U118MG cells assessed as inhibition of STAT3 protein expression at 1 to 2 uM after 24 hrs by Western blot analysis; type: cell-based
Target sequence in this assay (P14618 2-531 limits assumed): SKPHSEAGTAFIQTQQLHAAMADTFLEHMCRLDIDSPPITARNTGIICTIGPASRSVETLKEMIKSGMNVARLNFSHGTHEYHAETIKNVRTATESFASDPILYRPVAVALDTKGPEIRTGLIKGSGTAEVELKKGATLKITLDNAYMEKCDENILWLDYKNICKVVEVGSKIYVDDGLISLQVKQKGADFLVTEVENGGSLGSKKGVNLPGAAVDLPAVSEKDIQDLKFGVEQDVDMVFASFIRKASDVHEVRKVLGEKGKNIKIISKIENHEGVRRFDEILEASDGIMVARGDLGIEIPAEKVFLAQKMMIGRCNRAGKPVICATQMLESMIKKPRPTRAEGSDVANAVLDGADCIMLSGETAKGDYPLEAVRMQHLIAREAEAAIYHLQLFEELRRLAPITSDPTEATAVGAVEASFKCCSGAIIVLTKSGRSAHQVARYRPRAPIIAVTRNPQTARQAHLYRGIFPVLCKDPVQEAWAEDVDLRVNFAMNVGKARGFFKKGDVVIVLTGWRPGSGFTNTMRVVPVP

U-87 MG [8] = experiment: Antimetastatic activity against human U87 cells assessed as reduction in cell invasion at 2 uM after 24 hrs by crystal violet staining based transwell assay; type: functional; conditions: U-87MG ATCC
Pyruvate kinase PKM [9] = target: T1, Pyruvate kinase PKM; experiment: Activation of PKM2 in human U87 cells assessed as increase in E-cadherin expression at 1 to 2 uM after 24 hrs by Western blot analysis; type: cell-based; conditions: U-87MG ATCC
Target sequence in this assay (P14618 2-531 limits assumed): as above

Pyruvate kinase PKM [10] = target: T1, Pyruvate kinase PKM; experiment: Activation of PKM2 in human U118MG cells assessed as reduction in bcl2 expression at 1 to 2 uM after 48 hrs by Western blot analysis; type: cell-based
Target sequence in this assay (P14618 2-531 limits assumed): as above

U-87MG ATCC [11] = experiment: Induction of PDK4 protein expression in human U87 cells at 5 uM after 48 hrs by Western blot analysis; type: functional, cell-based
U-87 MG [12] = experiment: Induction of apoptosis in human U87 cells assessed as viable cells after 48 hrs by Annexin-V-FITC/PI-staining based flow cytometric analysis (reference value: 93.8%); type: functional, U-87MG ATCC
Pyruvate kinase PKM [13] = target: T1, Pyruvate kinase PKM; experiment: Activation of recombinant human N-terminal 6His-tagged PKM2 expressed in Escherichia coli BL21 cells after 50 mins by fluorescence based analysis
Target sequence in this assay (P14618 whole entry): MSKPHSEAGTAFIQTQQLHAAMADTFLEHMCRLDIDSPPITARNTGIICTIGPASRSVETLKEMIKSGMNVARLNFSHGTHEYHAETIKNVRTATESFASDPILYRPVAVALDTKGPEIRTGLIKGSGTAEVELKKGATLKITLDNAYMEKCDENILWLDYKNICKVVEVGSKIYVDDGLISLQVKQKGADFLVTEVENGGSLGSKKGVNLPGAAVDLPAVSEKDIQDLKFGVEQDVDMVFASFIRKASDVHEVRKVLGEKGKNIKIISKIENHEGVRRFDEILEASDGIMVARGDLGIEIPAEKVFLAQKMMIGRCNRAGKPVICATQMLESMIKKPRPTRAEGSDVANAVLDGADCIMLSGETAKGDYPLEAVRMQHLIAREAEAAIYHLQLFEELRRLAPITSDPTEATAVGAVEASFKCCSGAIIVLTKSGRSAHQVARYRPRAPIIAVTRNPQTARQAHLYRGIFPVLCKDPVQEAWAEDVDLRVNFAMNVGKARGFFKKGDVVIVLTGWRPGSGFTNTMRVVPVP

[14] = target: Transcription factor p65 (Homo sapiens) (UniProt Q04206); experiment: Effect on NFkappaB p65 nuclear translocation in human U118MG cells at 0.2 to 0.5 after 48 hrs by Western blot analysis; type: cell-based
U-118-MG [15] = experiment: Induction of apoptosis in human U118MG cells transfected with lentivirus expressing shNC assessed as viable cells after 48 hrs by Annexin-V-FITC/PI-staining based flow cytometric analysis (reference value: 96.7%); type: functional
U-87 MG [16] = experiment: Inhibition of colony formation in human U87 cells after 7 days; type: functional, cell-based; conditions: U-87MG ATCC
U-118-MG [17] = experiment: Induction of apoptosis in human U118MG cells transfected with lentivirus expressing shPKM2 assessed as early apoptotic cells after 48 hrs by Annexin-V-FITC/PI-staining based flow cytometric analysis (reference value: 2%); type: functional
U-87 MG [18] = experiment: Induction of apoptosis in human U87 cells transfected with lentivirus expressing shPKM2 assessed as viable cells after 48 hrs by Annexin-V-FITC/PI-staining based flow cytometric analysis (reference value: 97.3%); type: functional, U-87MG ATCC
U-118-MG [19] = experiment: Induction of apoptosis in human U118MG cells transfected with lentivirus expressing shNC assessed as late apoptotic cells after 48 hrs by Annexin-V-FITC/PI-staining based flow cytometric analysis (reference value: 0.334%); type: functional
C6 = experiment: Antiproliferative activity against rat C6 cells assessed as reduction in cell viability after 72 hrs by MTT assay; type: functional, cell-based; conditions: C6, 72 h
U-118-MG [20] = experiment: Induction of PDK4 protein expression in human U118MG cells at 2 uM after 48 hrs by Western blot analysis; type: functional, cell-based
U-87MG ATCC [21] = experiment: Effect on total PKM2 protein expression in human U87 cells at 0.5 to 5 uM after 48 hrs by Western blot analysis; type: functional, cell-based
U-87 MG [22] = experiment: Induction of apoptosis in human U87 cells transfected with lentivirus expressing shPKM2 assessed as early apoptotic cells after 48 hrs by Annexin-V-FITC/PI-staining based flow cytometric analysis (reference value: 0.88%); type: functional, U-87MG ATCC
Pyruvate kinase PKM [23] = target: T1, Pyruvate kinase PKM; experiment: Activation of PKM2 in human U87 cells assessed as reduction in vimentin expression at 1 to 2 uM after 24 hrs by Western blot analysis; type: cell-based; conditions: U-87MG ATCC
Target sequence in this assay (P14618 2-531 limits assumed): as the sequence (P14618 2-531 limits assumed) above

Pyruvate kinase PKM [24] = target: T1, Pyruvate kinase PKM; experiment: Activation of PKM2 in human U87 cells assessed as increase in bax protein expression at 1 to 2 uM after 48 hrs by Western blot analysis; type: cell-based; conditions: U-87MG ATCC
Target sequence in this assay (P14618 2-531 limits assumed): as above

HepG2 = experiment: Antiproliferative activity against human HepG2 cells assessed as reduction in cell viability after 72 hrs by MTT assay; type: functional, cell-based; conditions: HepG2, 72 h
U-118-MG [25] = experiment: Antiproliferative activity against human U118MG cells assessed as reduction in cell viability after 72 hrs by MTT assay; type: functional, cell-based
U-87 MG [26] = experiment: Induction of apoptosis in human U87 cells after 48 hrs by Annexin-V-FITC/PI-staining based flow cytometric analysis; type: functional, cell-based; conditions: U-87MG ATCC
U-118-MG [27] = experiment: Antiproliferative activity against human U118MG cells transfected with lentivirus expressing shPKM2 assessed as as reduction in cell viability after 24 hrs by MTT assay; type: functional, cell-based
A549 = experiment: Antiproliferative activity against human A549 cells assessed as reduction in cell viability after 72 hrs by MTT assay; type: functional, cell-based; conditions: A549, 72 h
Pyruvate kinase PKM [28] = target: T1, Pyruvate kinase PKM; experiment: Activation of PKM2 in human U118MG cells assessed as increase in bax protein expression at 1 to 2 uM after 48 hrs by Western blot analysis; type: cell-based
Target sequence in this assay (P14618 2-531 limits assumed): as above

HeLa = experiment: Antiproliferative activity against human HeLa cells assessed as reduction in cell viability after 72 hrs by MTT assay; type: functional, cell-based
U-87 MG [29] = experiment: Induction of apoptosis in human U87 cells assessed as late apoptotic cells after 48 hrs by Annexin-V-FITC/PI-staining based flow cytometric analysis (reference value: 1.22%); type: functional, U-87MG ATCC
U-87 MG [30] = experiment: Induction of apoptosis in human U87 cells transfected with lentivirus expressing shNC assessed as viable cells after 48 hrs by Annexin-V-FITC/PI-staining based flow cytometric analysis (reference value: 98.5%); type: functional, U-87MG ATCC
Pyruvate kinase PKM [31] = target: T1, Pyruvate kinase PKM; experiment: Activation of PKM2 in human U87 cells assessed as reduction in bcl-xl expression at 1 to 2 uM after 48 hrs by Western blot analysis; type: cell-based; conditions: U-87MG ATCC
U-118-MG [32] = experiment: Antiinvasive activity against human U118MG cells transfected with lentivirus expressing shPKM2 at 2 uM incubated for 48 hrs by crystal violet staining based transwell assay; type: functional, cell-based
U-118-MG [33] = experiment: Effect on total PKM2 protein expression in human U118MG cells at 0.5 to 2 uM after 48 hrs by Western blot analysis; type: functional, cell-based
Pyruvate kinase PKM [34] = target: T1, Pyruvate kinase PKM; experiment: Activation of recombinant human N-terminal 6His-tagged PKM2 expressed in Escherichia coli BL21 cells at 10 uM after 30 mins by fluorescence based analysis relative to control
NIH3T3 = experiment: Cytotoxicity against mouse 3T3 cells assessed as reduction in cell viability after 72 hrs by MTT assay; type: cell-based; conditions: NIH3T3, 72 h

Chain of Transcription factor p65 (Homo sapiens) (Q04206 whole entry): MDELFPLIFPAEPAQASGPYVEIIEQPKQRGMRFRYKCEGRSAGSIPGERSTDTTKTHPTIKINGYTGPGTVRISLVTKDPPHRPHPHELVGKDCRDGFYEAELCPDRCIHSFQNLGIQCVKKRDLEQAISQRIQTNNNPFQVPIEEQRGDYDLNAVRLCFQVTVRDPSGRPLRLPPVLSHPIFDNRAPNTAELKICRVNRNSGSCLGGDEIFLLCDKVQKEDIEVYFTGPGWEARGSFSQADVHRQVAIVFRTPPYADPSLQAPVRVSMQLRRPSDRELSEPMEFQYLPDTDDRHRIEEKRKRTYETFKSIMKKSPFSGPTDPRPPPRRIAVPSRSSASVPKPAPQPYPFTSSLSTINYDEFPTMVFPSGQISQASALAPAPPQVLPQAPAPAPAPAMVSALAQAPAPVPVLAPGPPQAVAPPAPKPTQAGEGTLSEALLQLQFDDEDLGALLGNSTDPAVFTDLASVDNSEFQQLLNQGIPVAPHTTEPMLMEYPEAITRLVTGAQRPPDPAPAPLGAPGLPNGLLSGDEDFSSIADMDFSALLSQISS

SMILES: C=C1C(=O)O[C@H]2[C@H]1CC/C(C(=O)OCCOCCOC(=O)/C1=C/CC[C@@]3(C)O[C@H]3[C@H]3OC(=O)C(=C)[C@@H]3CC1)=C\CC[C@@]1(C)O[C@@H]21
- Activity (U-87 MG [1]): 0.539%
- Activity (U-118-MG [2]): Dose-dependent effect
- Activity (U-87 MG [3]): Active
- Activity (U-118-MG [4]): Active
- Activity (U-87 MG [5]): 9.99%
- Activity (U-118-MG [6]): 1.32%
- Activity (Pyruvate kinase PKM [7]): Active
- Activity (U-87 MG [8]): Active
- Activity (Pyruvate kinase PKM [9]): Active
- Activity (Pyruvate kinase PKM [10]): Active
- Activity (U-87MG ATCC [11]): Active
- Activity (U-87 MG [12]): 72.5%
- AC50 (Pyruvate kinase PKM [13]): 0.015 µM
- Activity [14]: inactive
- Activity (U-118-MG [15]): 34.7%
- inhibition (U-87 MG [16]): Dose-dependent effect
- Activity (U-118-MG [17]): 5.78%
- Activity (U-87 MG [18]): 93%
- Activity (U-118-MG [19]): 16.4%
- IC50 (C6): 1.66 µM
- Activity (U-118-MG [20]): Active
- Activity (U-87MG ATCC [21]): inactive
- Activity (U-87 MG [22]): 3.74%
- Activity (Pyruvate kinase PKM [23]): Active
- Activity (Pyruvate kinase PKM [24]): Active
- IC50 (HepG2): 10.2 µM
- IC50 (U-118-MG [25]): 1.8 µM
- Activity (U-87 MG [26]): Dose-dependent effect
- IC50 (U-118-MG [27]): 1.98 µM
- IC50 (A549): 11.9 µM
- Activity (Pyruvate kinase PKM [28]): Active
- IC50 (HeLa): 5.05 µM
- Activity (U-87 MG [29]): 2.82%
- Activity (U-87 MG [30]): 85.1%
- Activity (Pyruvate kinase PKM [31]): Active
- Activity (U-118-MG [32]): inactive
- Activity (U-118-MG [33]): inactive
- fold change (FC) (Pyruvate kinase PKM [34]): > 2
- IC50 (NIH3T3): 7.93 µM
